Laboratory results: paper PMC8632988, “Inhibition of SYK and cSrc kinases can protect bone and cartilage in preclinical models of osteoarthritis and rheumatoid arthritis” (Scientific Reports, 2021)
Values joined by “and” are separate entries in the source; they are usually repeats but may differ in a detail not shown here. Equal entries are not always repeated.

Test system: Lewis rats, CIA model
Experiment: Collagen-induced semi-established arthritis model in rats
Format: in vivo, rat
Details: for Bone Resorption score, Mean / Cartilage Damage score, Mean / Inflammation score, Mean / Pannus score, Mean / Periosteal Bone Formation score, Mean / Periosteal Naïve Bone Width Actual, Mean / Summed Histopathology Scores, Mean: group mean; for Bone Resorption score (0=normal to 5=severe) / Cartilage Damage score (0=normal to 5=severe) / Inflammation score (0=normal to 5=severe) / Pannus score (0=normal to 5=severe) / Periosteal Bone Formation score (0=normal to 5=severe) / Periosteal Naïve Bone Width 16x Measure / Periosteal Naïve Bone Width Actual / Summed Histopathology Scores: individual joint (animal, R/L); for Bone Resorption score, % inhibition / Cartilage Damage score, % inhibition / Inflammation score, % inhibition / Pannus score, % inhibition / Periosteal Bone Formation score, % inhibition / Periosteal Naïve Bone Width, % inhibition / Summed Histopathology Scores, % inhibition: vs vehicle
Experimental: Rat CIA model was performed was performed at Pharmenterprises, Russia and approved by Ethics Committee of Pharmenterprises. Female Lewis rats with body weight of 164–183 g (Charles River Laboratories, Inc., Wilmington, MA) were injected with porcine type II collagen (Chondrex) emulsified with Freund’s Incomplete Adjuvant (Sigma Aldrich) at two sites at the base of the tail according to standard protocol. On day 7, the rats were boosted with a second subcutaneous injection. On day 6 of the study, rats were randomized by body weight into six groups: a control group of four, and five treatment groups of eight. […] Disease progression was monitored via daily ankle thickness measurements. At study termination on day 16 rats were anesthetized with Isoflurane, bled by vacutainer through the descending aorta to exsanguinate and then euthanized for tissue collection. Hind paws were transected at the level of the medial and lateral malleolus, weighed, and collected for microscopy.
[…]

[1] = ankle, day 16, MT-SYK-03 103 mg/kg PO BID + MTX Veh PO QD
[2] = ankle, day 16, MT-SYK-03 103 mg/kg PO BID + MTX Veh PO QD, 103 mg/kg
[3] = ankle, day 16, MT-SYK-03 207 mg/kg PO BID
[4] = ankle, day 16, MT-SYK-03 207 mg/kg PO BID, 207 mg/kg
[5] = knee, day 16, MT-SYK-03 103 mg/kg PO BID + MTX Veh PO QD

Question: How did the “Bone Resorption score, Mean” value [1] turn out when `COc1cc(Nc2ncnc(Nc3cc4c(cn3)NC(=O)C(C)(C)O4)n2)cc(OC)c1OC` [MT-SYK-03] was run?
Answer: The value was 1.50.

Question: What about the “Cartilage Damage score, Mean” value [1] of the same compound?
Answer: The value was 2.09.

Question: What about the “Inflammation score, Mean” value [1] of the same compound?
Answer: Its value is 4.44.

Question: What about the “Pannus score, Mean” value [1] of the same compound?
Answer: Its value is 1.50.

Question: And the “Periosteal Bone Formation score, Mean” value [1]?
Answer: Its value is 1.19.

Question: What about the “Periosteal Naïve Bone Width Actual, Mean” value [1] of the same compound?
Answer: Its value is 200.81 μm.

Question: What about the “Summed Histopathology Scores, Mean” value [1] of the same compound?
Answer: The value was 10.72.

Question: What about the “Bone Resorption score (0=normal to 5=severe)” value [2] of the same compound?
Answer: The value was 2 and 0.5 and 1.

Question: What about the “Cartilage Damage score (0=normal to 5=severe)” value [2] of the same compound?
Answer: The value was 3 and 0.5 and 2 and 1.

Question: What about the “Inflammation score (0=normal to 5=severe)” value [2] of the same compound?
Answer: The value was 5 and 2 and 4 and 3.

Question: And the “Pannus score (0=normal to 5=severe)” value [2]?
Answer: Its value is 2 and 0.5 and 1.

Question: And the “Periosteal Bone Formation score (0=normal to 5=severe)” value [2]?
Answer: The value was 2 and 0 and 1 and 0.5.

Question: And the “Periosteal Naïve Bone Width 16x Measure” value [2]?
Answer: The value was 5 and 0 and 3 and 2 and 1 and 4.

Question: What about the “Periosteal Naïve Bone Width Actual” value [2] of the same compound?
Answer: The value was 315 μm and 0 μm and 189 μm and 126 μm and 63 μm and 252 μm.

Question: And the “Summed Histopathology Scores” value [2]?
Answer: The value was 14 and 3.5 and 12 and 13 and 10 and 6.5 and 7.5 and 8.5.

Question: And the “Bone Resorption score, % inhibition” value [1]?
Answer: The value was −2%.

Question: And the “Cartilage Damage score, % inhibition” value [1]?
Answer: Its value is 13%.

Question: And the “Inflammation score, % inhibition” value [1]?
Answer: Its value is 1%.

Question: What about the “Pannus score, % inhibition” value [1] of the same compound?
Answer: Its value is -2%.

Question: And the “Periosteal Bone Formation score, % inhibition” value [1]?
Answer: Its value is 7%.

Question: What about the “Periosteal Naïve Bone Width, % inhibition” value [1] of the same compound?
Answer: Its value is 11%.

Question: And the “Summed Histopathology Scores, % inhibition” value [1]?
Answer: Its value is 4%.

Question: What about the “Bone Resorption score, Mean” value [3] of the same compound?
Answer: The value was 1.06.

Question: What about the “Cartilage Damage score, Mean” value [3] of the same compound?
Answer: Its value is 1.78.

Question: What about the “Inflammation score, Mean” value [3] of the same compound?
Answer: Its value is 3.84.

Question: What about the “Pannus score, Mean” value [3] of the same compound?
Answer: The value was 1.06.

Question: And the “Periosteal Bone Formation score, Mean” value [3]?
Answer: Its value is 0.69.

Question: What about the “Periosteal Naïve Bone Width Actual, Mean” value [3] of the same compound?
Answer: Its value is 129.94 μm.

Question: What about the “Summed Histopathology Scores, Mean” value [3] of the same compound?
Answer: The value was 8.44.

Question: What about the “Bone Resorption score (0=normal to 5=severe)” value [4] of the same compound?
Answer: The value was 1 and 2 and 0 and 0.5.

Question: And the “Cartilage Damage score (0=normal to 5=severe)” value [4]?
Answer: The value was 2 and 3 and 0.5 and 1.

Question: What about the “Inflammation score (0=normal to 5=severe)” value [4] of the same compound?
Answer: The value was 4 and 5 and 0.5 and 1 and 2 and 3.

Question: And the “Pannus score (0=normal to 5=severe)” value [4]?
Answer: The value was 1 and 2 and 0 and 0.5.

Question: And the “Periosteal Bone Formation score (0=normal to 5=severe)” value [4]?
Answer: Its value is 0.5 and 1 and 0 and 2.

Question: And the “Periosteal Naïve Bone Width 16x Measure” value [4]?
Answer: Its value is 1 and 2 and 3 and 4 and 0 and 5.

Question: What about the “Periosteal Naïve Bone Width Actual” value [4] of the same compound?
Answer: Its value is 63 μm and 126 μm and 189 μm and 252 μm and 0 μm and 315 μm.

Question: And the “Summed Histopathology Scores” value [4]?
Answer: The value was 8.5 and 12.5 and 13 and 12 and 10 and 1 and 1.5 and 3.5 and 4 and 14 and 6.5.

Question: What about the “Periosteal Naïve Bone Width, ANOVA to Vehicle” value (ankle, day 16, MT-SYK-03 207 mg/kg PO BID, p value) of the same compound?
Answer: The value was “p < 0.05”.

Question: What about the “Bone Resorption score, % inhibition” value [3] of the same compound?
Answer: The value was 28%.

Question: What about the “Cartilage Damage score, % inhibition” value [3] of the same compound?
Answer: The value was 26%.

Question: What about the “Inflammation score, % inhibition” value [3] of the same compound?
Answer: Its value is 15%.

Question: And the “Pannus score, % inhibition” value [3]?
Answer: The value was 28%.

Question: And the “Periosteal Bone Formation score, % inhibition” value [3]?
Answer: Its value is 46%.

Question: And the “Periosteal Naïve Bone Width, % inhibition” value [3]?
Answer: The value was 42%.

Question: What about the “Summed Histopathology Scores, % inhibition” value [3] of the same compound?
Answer: Its value is 24%.

Question: And the “Bone Resorption score, Mean” value [5]?
Answer: Its value is 0.66.

Question: And the “Cartilage Damage score, Mean” value [5]?
Answer: The value was 1.03.

Question: And the “Inflammation score, Mean” value [5]?
Answer: Its value is 2.78.

Question: What about the “Pannus score, Mean” value [5] of the same compound?
Answer: The value was 0.72.

Question: And the “Summed Histopathology Scores, Mean” value [5]?
Answer: The value was 5.19.

Question: And the “Bone Resorption score (0=normal to 5=severe)” value (knee, day 16, MT-SYK-03 103 mg/kg PO BID + MTX Veh PO QD, 103 mg/kg)?
Answer: The value was 1 and 2 and 0 and 0.5.
